Measurements taken from patent US20240158445A1, “CYCLIC CELL-PENETRATING PEPTIDES WITH THREE OR MORE HYDROPHOBIC RESIDUES” (Ohio State Innovation Foundation, priority 2021, published 2024).
Where a SMILES comes first, the peptide text is derived from it. Side-chain parts run from the residue outwards. [ ]: non-standard residue; d: D form. The star is where a group is joined. X2 = NC(=O)[C@H](CCCCNC(=O)c1ccc(-c2c3ccc4cc(O)ccc4c3oc3c2ccc2cc(=O)ccc23)c(C(=O)O)c1)N*; Lys(5-FITC)NH2 = NC(=O)[C@H](CCCCNC(=S)Nc1ccc2c(c1)C(=O)OC21c2ccc(O)cc2Oc2cc(O)ccc21)N*; X1 = CN(C)c1ccc2c(c1)Oc1cc(N(C)C)ccc1C21OC(=O)c2cc(C(=O)NCCCC[C@H](N*)C(N)=O)ccc21; 2Nal = N[C@@H](Cc1ccc2ccccc2c1)C(=O)O; Bta = N[C@@H](Cc1csc2ccccc12)C(=O)O; AEEA = NCCOCCOCC(=O)O

Experiments:
[1] = molecular target: proteins in FBS; test: Fluorescence polarization analysis of CPP binding to FBS; parameters: species or system bovine; conditions: 100 nM labeled peptide, FBS in DPBS, 1 h, FP; read-out: apparent KD to proteins in FBS
Procedure: General Methods—Fluorescence Polarization (FP) Analysis of CPP Binding to FBS. Fluorescein-labeled peptide (100 nM) was incubated with serial dilutions of FBS (0-100 μM) in DPBS for 1 h. The solutions were transferred to a 384-black microplate (Greiner), and FP values were measured on a Tecan Infinite M1000 Pro plate reader, with excitation and emission wavelengths at 470 and 535 nm, respectively, for FITC, 530 and 580 nm for TMR, and 595 and 660 nm for NF. The titration curves were fitted using GraphPad Prism to the following equation: […]
where FP is the measured polarization, Amin is the minimum FP value, Amax is the maximum FP value, Qb is the quantum yield of the bound fluorophore, Qf is the quantum yield of the free fluorophore, L is the ligand concentration, KD is the dissociation constant, and x is the protein concentration. Data presented are the mean±SD of three independent experiments.

[2] = tested on: HeLa cells; test: Live-cell confocal microscopy; format: cell-based, human; conditions: 2 h, 1% FBS
Procedure: General Methods—Confocal Microscopy. HeLa cells were seeded in a 35-mm glass-bottomed microwell dish with 4 compartments (Greiner) at a density of 5×10^4 cells/mL (300 μL in each compartment) and cultured overnight. Next day, the cells were gently washed with DPBS twice, and treated for 2 h with FITC- or TMR-labelled peptides (5 μM, 1 μM or 0.2 μM as indicated) in phenol-red free DMEM containing 1% […]. After removal of the medium, the cells were gently washed with DPBS twice and imaged on a Nikon A1R live-cell confocal laser scanning (ECLIPSE Ti-E automated, inverted) microscope equipped with a 100× oil objective (1.45 N.A.) and a heated (37° C.) chamber supplied with 5% CO2. For the red channel (TMR), the laser line with λEx 561 nm was set at 0.6% laser power (for 5 μM peptide treatment), 1.6% laser power (for 1 μM peptide treatment) or 10.8% laser power (for 0.2 μM peptide treatment). For the green channel (FITC), the laser line with λEx 487 nm was set at 0.6% laser power. The data were analyzed using NIS-Elements AR.

[3] = tested on: Keap1-Nrf2 interaction; test: Luciferase reporter assay in ARE reporter-HepG2 cells; format: cell-based; conditions: up to 5 mM concentration
Procedure: General Methods—Luciferase Reporter Assay. ARE reporter-HepG2 cells (1000 cells per well) were seeded in 100 μL of assay medium (MEM, 0% FBS, and 1% penicillin-streptomycin sulfate) in an opaque 96-well plate and cultured overnight. […] After incubation, 100 μL of One-Step luciferase assay reagent was added to each well and after 15 min of shaking, the luminescence was measured using a Tecan Infinite M1000 Pro microplate reader. P values (<0.05) were estimated using Student's t test.

Structure (SMILES) | Kd [1] | intracellular distribution of TMR fluorescence ([2]; 0.2 and 1.0 μM) | intracellular distribution of TMR fluorescence ([2]; 5 μM) | increase in luciferase activity [3]
N=C(N)NCCC[C@@H]1NC(=O)[C@H](Cc2ccc3ccccc3c2)NC(=O)[C@@H](Cc2ccccc2)NC(=O)[C@H](Cc2ccccc2)NC(=O)[C@H](CCC(=O)NCCOCCOCC(=O)N[C@@H](CCCCNC(=O)c2ccc(-c3c4ccc5cc(O)ccc5c4oc4c3ccc3cc(=O)ccc34)c(C(=O)O)c2)C(N)=O)NC(=O)[C@@H](CCCNC(=N)N)NC(=O)[C@H](CCCNC(=N)N)NC(=O)[C@@H](CCCNC(=N)N)NC1=O [CPP12, cycl(Phe-D-Phe-Nal-Arg-D-Arg-Arg-D-Arg-Gln)] (cyclo([2Nal]R[dR]R[dR]E([AEEA-X2])F[dF])) | 1.3 ± 0.3 µM |  |  | 
N=C(N)NCCC[C@@H]1NC(=O)[C@H](Cc2csc3ccccc23)NC(=O)[C@@H](Cc2ccccc2)NC(=O)[C@H](Cc2ccccc2)NC(=O)[C@H](CCC(=O)NCCOCCOCC(=O)N[C@@H](CCCCNC(=O)c2ccc(-c3c4ccc5cc(O)ccc5c4oc4c3ccc3cc(=O)ccc34)c(C(=O)O)c2)C(N)=O)NC(=O)[C@@H](CCCNC(=N)N)NC(=O)[C@H](CCCNC(=N)N)NC(=O)[C@@H](CCCNC(=N)N)NC1=O [CPP12-2, Phe-phe-(Bta)-Arg-arg-Arg-arg-Gln] (cyclo([Bta]R[dR]R[dR]E([AEEA-X2])F[dF])) | 1.2 ± 0.4 µM |  |  | 
N=C(N)NCCC[C@@H]1NC(=O)[C@H](Cc2csc3ccccc23)NC(=O)[C@@H](Cc2ccccc2)NC(=O)[C@H](Cc2ccccc2)NC(=O)[C@H](CCC(=O)NCCOCCOCC(=O)N[C@@H](CCCCNC(=S)Nc2ccc3c(c2)C(=O)OC32c3ccc(O)cc3Oc3cc(O)ccc32)C(N)=O)NC(=O)[C@@H](CCCNC(=N)N)NC(=O)[C@H](CCCNC(=N)N)NC(=O)[C@@H](CCCNC(=N)N)NC1=O [CPP12-2^FITC] (cyclo(F[dF][Bta]R[dR]R[dR]E([AEEA-Lys(5-FITC)NH2]))) | 30 ± 5 µM |  |  | 
CN(C)c1ccc2c(c1)Oc1cc(N(C)C)ccc1C21OC(=O)c2cc(C(=O)NCCCC[C@H](NC(=O)COCCOCCNC(=O)CC[C@@H]3NC(=O)[C@@H](CCCNC(=N)N)NC(=O)[C@H](CCCNC(=N)N)NC(=O)[C@@H](CCCNC(=N)N)NC(=O)[C@H](CCCNC(=N)N)NC(=O)[C@H](Cc4csc5ccccc45)NC(=O)[C@@H](Cc4ccccc4)NC(=O)[C@H](Cc4ccccc4)NC3=O)C(N)=O)ccc21 [CPP12-2^TMR] (cyclo([Bta]R[dR]R[dR]E([AEEA-X1])F[dF])) | 68 ± 9 µM | predominantly punctate fluorescence in the cytoplasmic region |  | 
N=C(N)NCCC[C@@H]1NC(=O)[C@H](Cc2ccc3ccccc3c2)NC(=O)[C@@H](Cc2ccccc2)NC(=O)[C@H](Cc2ccccc2)NC(=O)[C@H](CCC(=O)NCCOCCOCC(=O)N[C@@H](CCCCNC(=S)Nc2ccc3c(c2)C(=O)OC32c3ccc(O)cc3Oc3cc(O)ccc32)C(N)=O)NC(=O)[C@@H](CCCNC(=N)N)NC(=O)[C@H](CCCNC(=N)N)NC(=O)[C@@H](CCCNC(=N)N)NC1=O [CPP12^FITC] (cyclo(F[dF][2Nal]R[dR]R[dR]E([AEEA-Lys(5-FITC)NH2]))) | 29 ± 3 µM |  |  | 
CN(C)c1ccc2c(c1)Oc1cc(N(C)C)ccc1C21OC(=O)c2cc(C(=O)NCCCC[C@H](NC(=O)COCCOCCNC(=O)CC[C@@H]3NC(=O)[C@@H](CCCNC(=N)N)NC(=O)[C@H](CCCNC(=N)N)NC(=O)[C@@H](CCCNC(=N)N)NC(=O)[C@H](CCCNC(=N)N)NC(=O)[C@H](Cc4ccc5ccccc5c4)NC(=O)[C@@H](Cc4ccccc4)NC(=O)[C@H](Cc4ccccc4)NC3=O)C(N)=O)ccc21 [CPP12^TMR] (cyclo([2Nal]R[dR]R[dR]E([AEEA-X1])F[dF])) | 27 ± 9 µM | predominantly punctate fluorescence in the cytoplasmic region | very similar intracellular distribution | 
CC(C)C[C@@H]1NC(=O)[C@H](Cc2ccccc2)NC(=O)[C@H](CCC(=O)O)NC(=O)CNC(=O)[C@H]([C@@H](C)O)NC(=O)[C@H](CCC(=O)O)NC(=O)[C@@H]2CCCN2C(=O)[C@H](CC(=O)O)NC(=O)[C@H](CC(C)C)NC(=O)[C@H](CCC(N)=O)NC(=O)CNC1=O [Peptide P1] |  |  |  | did not result in significant increase in luciferase activity
